Test results reported in patent US20050266024A1 (priority 2002, published 2005).
“Also recorded” adds a separate entry of the source. Read-outs that look alike come from different tables or passages of the source.

Key:
[1] = test system: Balb/C mice; experiment: Cellular immune responses after HBsAg DNA vaccine (assay not specified); format: in vivo; conditions: as stated in Example 6
From the text: This experiment includes a plasmid that expresses HBsAg from the keratin 14 promoter. This was used to try and alter the expression of the antigen in different cell types and see if this affects the immune response. Mice were immunized twice.

[2] = test system: Balb/C mice; experiment: ELISA for subclass of HBsAg specific antibody (IgG1/IgG2a); format: in vivo; conditions: Example 6; serum samples from different experiments; FIG. 15
[3] = test system: Balb/C mice; experiment: IFN-g ELISPOT of spleen cells after HBsAg DNA vaccine; conditions: Example 2; prime and boost
[4] = test system: Balb/C mice; format: in vivo; conditions: Example 7; first experiment, prime only
[5] = test system: Balb/C mice; experiment: Serum antibody ELISA (HBsAg) after HBsAg DNA vaccine; format: in vivo; conditions: Example 2; prime and boost, HBsAg plasmid with HCMV promoter; FIG. 3
Protocol: (§1) For immunization with the Hepatitis B surface antigen (HBsAg) a plasmid containing the HCMV promoter/enhancer was used to drive expression of the HBsAg. For one experiment we also employed a plasmid in which the keratin 14 promoter was used instead of the HCMV promoter. This promoter is expected to have a more restricted pattern of expression and be expressed only in the skin unlike the HCMV promoter that is expressed in many cell types.
(§2) The cream is a 5% solution.
Serum samples were assayed for antibodies using an BLISA assay. Falcon Pro Bind microtiter plates were coated overnight at 4° C. with antigen in PBS (phosphate buffered saline, BioWhittaker). For HBsAg BLISA the antigen was purified HBsAg (BioDesign) at 0.1 ug per well, and for HSV ELISAs the antigen was 5 ug per well of an infected cell extract (Advanced Biotechnolgies Incorporated). […]
Plates were washed 3× and a biotinylated goat anti-mouse antibody (Southern Biotechnology) diluted 1:8000 in dilution buffer was added to the plate and incubated for 1 hr at RT. […] Optical density was read at 450 nm. Endpoint titers for HBsAg were calculated by comparison of the samples with a standard of known titer.

[6] = test system: Balb/C mice; experiment: Anti-sAg and anti-cAg antibody ELISAs after PMID with HBV sAg/cAg plasmid; format: in vivo; conditions: Example 7
[7] = test system: Balb/C mice; format: in vivo; conditions: for g-IFN secretion: first experiment
Protocol: Two further experiments were performed to assess the efficacy of imiquimod (Aldara cream) as an adjuvant for particle-mediated immunization with DNA (PMD). Both experiments used a plasmid expressing HBV sAg and cAg as a test vaccine. […] Readouts included antibody titers and cytokine ELISPOTs to the two antigens.
Groups of 5-10 Balb/c mice were vaccinated on the shaved abdomen with one shot each on day 0 (prime only) or days 0 and 28 (prime and boost). PMID was administered using an ND5.5 device with a payload of 1 mg Au and a 35 bar cylinder. […] In experiment one, a small, unmnetered amount of Aldara was delivered at the indicated times using a cotton swab to rub the cream in. […] The control cream was an over the counter hand cream which contained many of the same ingredients as the Aldara base cream.
Mice were bled retro-orbitally at 4 weeks for prime/boost groups. Blood was collected by intracardiac puncture, and spleens were removed for cellular assays at sacrifice at either week 2 (prime only) or week 6 (boost+2 weeks). Sera were analyzed for anti-sAg and anti-cAg antibodies using in-house ELISAs. Spleen cells from individual mice were stimulated with protein or peptide for g-IFN and IL-4 ELISPOT assays. Three sets of antigen were used: 1) intact cAg from Biodesign; 2) a library of overlapping sAg peptides (15 mers offset by 3 amino acids synthesized by Chiron); and 3) an immunodominant peptide from sAg (amino acids 28-39) known to bind the MHC class I molecule Ld. Specific spot-forming cells were calculated by subtracting the number of spots generated with cells cultured in medium alone.

[8] = test system: Balb/C mice; experiment: CD8 IFN-g ELISA of spleen cells after HBsAg DNA vaccine; format: in vivo; conditions: Example 2; prime and boost
From the text: as §1, §2
Mice were immunized with a DNA vaccine containing a HBsAg expressing plasmid using either a high dose (1 ug) or low dose (50 ng) of vaccine. […] One group was also treated for three days (day 0, 1 and 2). […] Results shown in FIG. 1 are from the CD8 IFN-g ELISA. […] The values are the means from 4 individual mice.

[9] = test system: Balb/C mice; experiment: Resiquimod adjuvant test: cellular immune responses (CD8 ELISPOT) after HBsAg DNA vaccine; format: in vivo; conditions: Example 16, topical
Protocol: Resiquimod is delivered topically to the abdominal skin of Balb/c mice on either day −2, −1, 0, 1, 2 or 3 relative to immunization on day 0. Immunization utilizes a DNA vaccine that expresses the Hepatitis B surface antigen so that cellular and antibody responses found after treatment with Resiquimod can be evaluated and compared to a wealth of historical data. The formulation consists of either a 0.05% cream, or a DMSO solution (approximately 5 mg/ml). Ideally both types of formula are tested. One half of the mice are sacrificed 7 days after immunization to measure cellular immune responses (CD8 ELISPOT). The remaining mice are bled 28 days after immunization, boosted with the same schedule as the priming immunization and then sacrificed 2 weeks later to test for antibody and cellular responses. Serum is used to test for antibody titer and to evaluation subclass distribution of IgG antibodies indicating the bias of the immune response.
For immunization DNA vaccine plasmids with a well-known immune response are employed. Plasmid WRG7128 is a likely choice which expresses the Hepatitis B surface antigen (HBsAg) using the HCMV promoter/enhancer and generates a cellular and antibody response.
Resiquimod is formulated as either a 0.05% cream, or a 5 mg/ml solution in DMSO. To apply the cream, it is rubbed onto the abdomens of mice using a cotton swab. […]

Q: CCCCC[C@H](O)/C=C/[C@H]1[C@H](O)CC(=O)[C@@H]1C/C=C\CCCC(=O)O [PGE2] was tested. Which cellular responses [1] did it give?
A: can enhance cellular responses

Q: What about the “ratio of IgG1/IgG2a of HBsAg specific antibody” value [2] of the same compound?
A: does not have the same effect overall

Q: How did the “cellular response (ELISPOTs)” value [3] turn out when CC(C)Cn1cnc2c(N)nc3ccccc3c21 [imiquimod, 1-(2-methyl-propyl)-1H-imidazo[4,5-c]quinolin-4-amine] was run?
A: enhanced the responses

Q: What about the “IL-4 ELISPOTs / IL-4 secretion” value [4] of the same compound?
A: little effect; also recorded: no effect

Q: And the antibody levels [5]?
A: strong reduction in antibody levels

Q: What about the “antibody titers / antibody responses to HBV sAg and cAg” value [6] of the same compound?
A: little effect; also recorded: did not enhance antibody responses

Q: What about the “g-IFN ELISPOT response to class I-restricted peptide (CD8+ cells)” value ([7]; Example 7, first experiment, compared with sAg peptide library response) of the same compound?
A: comaparable responses were seen

Q: What about the “optimal time point for augmenting g-IFN-secreting cells” value ([7]; Example 7, time after PMID) of the same compound?
A: about a day and upto 7 days after PMID

Q: And the g-IFN secretion ([7]; highest dose of DNA, delivered right before or right after)?
A: slightly inhibitory

Q: What about the g-IFN secretion ([7]; highest dose of DNA, given 24 hours after) of the same compound?
A: augments PMID

Q: What about the g-IFN secretion ([7]; low doses of DNA, administration 24 hours post PMID) of the same compound?
A: most effective

Q: What about the g-IFN secretion ([7]; low doses of HBV-encoding DNA, all three time points) of the same compound?
A: enhances g-IFN secretion

Q: And the “cellular response (IFN-g ELISA)” value [8]?
A: enhanced the responses

Q: What does the source list for CCOCc1nc2c(N)nc3ccccc3c2n1CC(C)(C)O [Resiquimod, 4-amino-2-ethoxymethyl-alpha,alpha-dimethyl-1H-imidazo [4,5-c]quinoline-1-ethanol]?
A: cellular immune response [9]: boost in the cellular immune response; immune responses to the DNA vaccines ([9]; before or after immunization): enhances immune responses
